From PubChem BioAssay (NCI) come the findings set out here.

One may read the TGI as the concentration at which net growth stops.

Some test systems named below: 786-0 renal; A549 NSCLC; CCRF-CEM leukemia; DU-145 prostate; HCT-15 colon; HT29 colon; KM12 colon; NCI/ADR-RES ovarian; OVCAR-5 ovarian; SF-295 CNS; SK-MEL-28 melanoma; SK-MEL-5 melanoma; SK-OV-3 ovarian; SN12C renal; TK-10 renal; HOP-62 NSCLC.
Common to all, as to assay: DTP human tumour cell line panel, 48 h

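Interpolation was linear, between the two tested concentrations surrounding the appropriate level; five concentrations were tested over 48 hours in 96-well plates. TGI: total growth inhibition.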

Consider `O=[N+]([O-])c1ccc(Cl)cc1-n1nc(-c2ccccc2)cc1-c1ccccc1`, for which the TGI with 786-0 renal, in the test on A549 NSCLC, in the test on CCRF-CEM leukemia, in the test with DU-145 prostate, with HCT-15 colon and in the test with HT29 colon was over 100 µM each time. The TGI with KM12 colon, in the test on NCI/ADR-RES ovarian, in the test with OVCAR-5 ovarian, in the test on SF-295 CNS, in the test on SK-MEL-28 melanoma and in the test with SK-MEL-5 melanoma was over 100 µM in each case. Besides, the TGI in the test on SK-OV-3 ovarian, in the test on SN12C renal and in the test with TK-10 renal was over 100 µM in each case.

For the compound `CCOC(=O)C1(Cc2ccccc2)Cc2cc3c(cc2C1)CCC3`, the TGI in the test with 786-0 renal was over 100 µM; in the test on A549 NSCLC, over 100 µM; with CCRF-CEM leukemia, 36.6 µM; in the test with DU-145 prostate it was over 100 µM; with HCT-15 colon, over 100 µM; in the test with HOP-62 NSCLC, over 100 µM. Also, the TGI in the test on HT29 colon was 46.2 µM; in the test on KM12 colon, over 100 µM; in the test with NCI/ADR-RES ovarian it was over 100 µM; with OVCAR-5 ovarian it was 66.3 µM; in the test on SF-295 CNS, 85.8 µM; with SK-MEL-28 melanoma it was over 100 µM. The TGI in the test with SK-OV-3 ovarian is 90.9 µM; in the test with SN12C renal, over 100 µM; in the test on TK-10 renal, over 100 µM.

As for `Cc1ccc(/C=C2\N=C(N3CCCCC3)NC2=O)cc1`, the TGI in the test on 786-0 renal, in the test on A549 NSCLC, with CCRF-CEM leukemia, in the test with DU-145 prostate, in the test on HCT-15 colon and in the test with HOP-62 NSCLC was over 100 µM throughout. Further, the TGI in the test with HT29 colon, with KM12 colon, in the test with NCI/ADR-RES ovarian, with OVCAR-5 ovarian, with SF-295 CNS and in the test on SK-MEL-28 melanoma was over 100 µM in each case. The TGI in the test on SK-OV-3 ovarian, in the test with SN12C renal and with TK-10 renal was over 100 µM each time.

In the case of `CC(=O)Oc1ccc(N2C(=O)C3c4[nH]c5ccccc5c4C4CCC(C(C)(C)C)CC4C3C2=O)cc1` (stereo unspecified), the TGI turned out to be 4.31 µM in the test with 786-0 renal; 10.7 µM in the test on A549 NSCLC; 13.2 µM in the test with CCRF-CEM leukemia; 12.2 µM in the test on DU-145 prostate; 12.3 µM in the test on HCT-15 colon; 13.5 µM in the test with HOP-62 NSCLC. Further, the TGI in the test on HT29 colon turned out to be 9.38 µM; in the test on NCI/ADR-RES ovarian it was 14.7 µM; in the test with OVCAR-5 ovarian it was 14.6 µM; in the test with SF-295 CNS, 14.8 µM; with SK-MEL-28 melanoma it was 14.9 µM; with SK-MEL-5 melanoma, 8.19 µM. Moreover, the TGI in the test on SK-OV-3 ovarian turned out to be 24 µM; with SN12C renal, 4.17 µM; with TK-10 renal, 10.7 µM.

With `Cc1nc(-c2ccccc2)c(C)n2c1nc1ccccc12`, the TGI with 786-0 renal was over 100 µM; with A549 NSCLC it was over 100 µM; in the test with CCRF-CEM leukemia, over 100 µM; in the test with DU-145 prostate, over 100 µM; in the test on HCT-15 colon, 74.5 µM; with HOP-62 NSCLC, over 100 µM. Further, the TGI in the test on HT29 colon is over 100 µM; with KM12 colon it was over 100 µM; in the test with NCI/ADR-RES ovarian, 69.7 µM; in the test with OVCAR-5 ovarian, over 100 µM; with SF-295 CNS it was over 100 µM; in the test with SK-MEL-28 melanoma, over 100 µM. Moreover, the TGI in the test with SK-OV-3 ovarian is 46.3 µM; in the test on SN12C renal, over 100 µM; in the test on TK-10 renal, 84 µM.

Take `ClC(Cl)(Cl)C1CCOC1n1nc2ccccc2n1` (stereo unspecified): the TGI in the test with 786-0 renal, in the test on A549 NSCLC, in the test on CCRF-CEM leukemia, with DU-145 prostate, with HCT-15 colon and with HOP-62 NSCLC was over 100 µM throughout. For the same compound, the TGI with HT29 colon, in the test on NCI/ADR-RES ovarian, in the test on OVCAR-5 ovarian, in the test with SF-295 CNS, in the test on SK-MEL-5 melanoma and with SK-OV-3 ovarian was over 100 µM each time. For the same compound, the TGI with SN12C renal and with TK-10 renal was over 100 µM in each case.

As for `CC1=C2C(=O)O[C@@H](c3ccoc3)[C@]2(C)CCC1=O`, the TGI in the test with 786-0 renal, with A549 NSCLC, in the test on CCRF-CEM leukemia, with DU-145 prostate, in the test on HCT-15 colon and in the test with HOP-62 NSCLC was over 100 µM each time. Also, the TGI in the test with KM12 colon, in the test on NCI/ADR-RES ovarian, in the test with OVCAR-5 ovarian, with SF-295 CNS, with SK-MEL-28 melanoma and with SK-MEL-5 melanoma was over 100 µM in each case. Further, the TGI in the test on SK-OV-3 ovarian and with SN12C renal was over 100 µM in each case.

Consider `O=c1[nH]c2cc(C(F)(F)F)ccc2nc1Cc1ccccc1`, for which the TGI with 786-0 renal is over 100 µM; with CCRF-CEM leukemia it was over 100 µM; with DU-145 prostate, over 100 µM; in the test with HCT-15 colon, over 100 µM; with HOP-62 NSCLC, 95.9 µM; in the test with HT29 colon, over 100 µM. The TGI in the test with KM12 colon is over 100 µM; in the test on NCI/ADR-RES ovarian it was over 100 µM; with SF-295 CNS, over 100 µM; in the test on SK-MEL-28 melanoma, over 100 µM; in the test on SK-MEL-5 melanoma it was over 100 µM; in the test with SK-OV-3 ovarian, 87.4 µM. This compound registered a TGI in the test on TK-10 renal of over 100 µM.

On to `C[C@H](CCC1=NCCN1)[C@H]1CC[C@H]2[C@@H]3[C@H](O)C[C@@H]4C[C@H](O)CC[C@]4(C)[C@H]3CC[C@]12C`, for which the TGI was determined as 27.7 µM with 786-0 renal; 32.9 µM in the test on CCRF-CEM leukemia; 27.3 µM with DU-145 prostate; 30.1 µM with HCT-15 colon; 29.7 µM in the test with HOP-62 NSCLC; 10.4 µM in the test on HT29 colon. In addition, the TGI in the test with KM12 colon is 27.7 µM; with NCI/ADR-RES ovarian, over 100 µM; in the test on OVCAR-5 ovarian it was 27.5 µM; in the test on SF-295 CNS, 28.9 µM; with SK-MEL-28 melanoma it was 27.2 µM; with SK-MEL-5 melanoma it was 27.3 µM. For the same compound, the TGI in the test with SK-OV-3 ovarian was 33.1 µM; in the test with SN12C renal, 37 µM; with TK-10 renal, 26.7 µM.

Regarding `CCOC(=O)N1CCN(Cc2cc(=O)n3cc(C)ccc3n2)CC1`, the TGI in the test on 786-0 renal, in the test on A549 NSCLC, with CCRF-CEM leukemia, in the test with DU-145 prostate, with HCT-15 colon and in the test on HOP-62 NSCLC was over 100 µM throughout. For the same compound, the TGI in the test on HT29 colon, in the test with KM12 colon, with NCI/ADR-RES ovarian, with OVCAR-5 ovarian, with SF-295 CNS and with SK-MEL-28 melanoma was over 100 µM each time. In addition, the TGI in the test with SK-OV-3 ovarian, in the test on SN12C renal and with TK-10 renal was over 100 µM each time.
